Reference: ChEMBL document CHEMBL1781982, “Evaluation of antioxidant and antimicrobial activities of Bergenin and its derivatives obtained by chemoenzymatic synthesis” (Eur J Med Chem, 2011)
Active and inactive are the calls of the source. No cut-off for these calls is given here.

What follows are compounds tested on Radical scavenging activity (assay: Antioxidant activity assessed as DPPH free radical scavenging activity at 200 to 1000 uM after 5 mins). Conditions: not given.
Format: functional

| SMILES | Activity |
| --- | --- |
| COc1c(OC(=O)c2ccccc2)cc2c(c1OC(C)=O)[C@@H]1O[C@H](COC(C)=O)[C@@H](OC(C)=O)[C@H](OC(C)=O)[C@H]1OC2=O | Active |
| COc1c(O)cc2c(c1OC(C)=O)[C@@H]1O[C@H](COC(C)=O)[C@@H](OC(C)=O)[C@H](OC(C)=O)[C@H]1OC2=O | Active |
| CCCCCCCCCC(=O)Oc1cc2c(c(OC(C)=O)c1OC)[C@@H]1O[C@H](COC(C)=O)[C@@H](OC(C)=O)[C@H](OC(C)=O)[C@H]1OC2=O | Active |
| CCCCCC(=O)Oc1cc2c(c(OC(C)=O)c1OC)[C@@H]1O[C@H](COC(C)=O)[C@@H](OC(C)=O)[C@H](OC(C)=O)[C@H]1OC2=O | Active |
| COc1c(O)cc2c(c1O)[C@@H]1O[C@H](CO)[C@@H](O)[C@H](O)[C@H]1OC2=O [BERGENIN] | Active |
| CCCCCCCCCCCCCC(=O)Oc1cc2c(c(OC(C)=O)c1OC)[C@@H]1O[C@H](COC(C)=O)[C@@H](OC(C)=O)[C@H](OC(C)=O)[C@H]1OC2=O | Active |
| COc1c(OC(C)=O)cc2c(c1OC(C)=O)[C@@H]1O[C@H](COC(C)=O)[C@@H](OC(C)=O)[C@H](OC(C)=O)[C@H]1OC2=O [BERGENIN PENTAACETATE] | Active |

What follows are compounds tested against Xanthine dehydrogenase/oxidase (Homo sapiens, UniProt P47989) (assay: Inhibition of xanthine oxidase assessed as reduction of uric acid production from xanthine at 10 to 50 uM preincubated for 15 mins measured after 30 mins by spectrophotometry). Conditions: 0.5 h.
Chain of Xanthine dehydrogenase/oxidase (P47989 whole entry): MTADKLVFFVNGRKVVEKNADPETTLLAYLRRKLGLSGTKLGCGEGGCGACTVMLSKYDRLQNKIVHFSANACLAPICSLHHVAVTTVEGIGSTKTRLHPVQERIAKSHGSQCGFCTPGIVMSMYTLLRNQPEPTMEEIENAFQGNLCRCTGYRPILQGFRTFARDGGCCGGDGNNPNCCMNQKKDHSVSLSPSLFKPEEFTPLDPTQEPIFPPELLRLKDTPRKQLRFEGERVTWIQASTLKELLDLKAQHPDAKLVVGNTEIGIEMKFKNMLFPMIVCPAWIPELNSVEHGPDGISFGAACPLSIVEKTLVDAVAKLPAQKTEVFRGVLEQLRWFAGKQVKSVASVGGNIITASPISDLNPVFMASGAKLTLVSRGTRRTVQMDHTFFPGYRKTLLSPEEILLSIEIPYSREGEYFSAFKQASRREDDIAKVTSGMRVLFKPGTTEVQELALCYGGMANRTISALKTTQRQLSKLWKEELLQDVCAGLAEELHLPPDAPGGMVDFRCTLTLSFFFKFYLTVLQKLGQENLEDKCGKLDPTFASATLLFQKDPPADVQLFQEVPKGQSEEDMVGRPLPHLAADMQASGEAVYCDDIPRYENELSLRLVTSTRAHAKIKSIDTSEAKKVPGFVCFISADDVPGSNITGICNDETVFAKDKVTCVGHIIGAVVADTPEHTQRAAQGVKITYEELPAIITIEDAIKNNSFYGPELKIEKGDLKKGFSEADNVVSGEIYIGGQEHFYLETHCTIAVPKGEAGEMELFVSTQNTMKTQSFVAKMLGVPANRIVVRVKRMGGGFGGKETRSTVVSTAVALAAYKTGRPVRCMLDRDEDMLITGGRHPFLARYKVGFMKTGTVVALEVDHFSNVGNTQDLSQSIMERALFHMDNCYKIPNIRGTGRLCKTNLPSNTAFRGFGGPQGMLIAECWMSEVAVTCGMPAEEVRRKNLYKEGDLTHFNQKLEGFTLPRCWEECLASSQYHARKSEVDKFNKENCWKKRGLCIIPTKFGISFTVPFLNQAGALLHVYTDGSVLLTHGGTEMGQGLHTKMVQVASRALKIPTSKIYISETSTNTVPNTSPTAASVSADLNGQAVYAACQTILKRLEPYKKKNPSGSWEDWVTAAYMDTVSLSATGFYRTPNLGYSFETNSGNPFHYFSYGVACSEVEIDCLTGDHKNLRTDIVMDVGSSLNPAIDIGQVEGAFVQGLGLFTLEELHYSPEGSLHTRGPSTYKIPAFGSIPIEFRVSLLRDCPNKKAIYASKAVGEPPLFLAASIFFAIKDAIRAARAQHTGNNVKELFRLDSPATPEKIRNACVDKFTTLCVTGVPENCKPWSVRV

| inhibition (INH) | SMILES |
| --- | --- |
| Not Active | COc1c(OC(=O)c2ccccc2)cc2c(c1OC(C)=O)[C@@H]1O[C@H](COC(C)=O)[C@@H](OC(C)=O)[C@H](OC(C)=O)[C@H]1OC2=O |
| Not Active | CCCCCCCCCC(=O)Oc1cc2c(c(OC(C)=O)c1OC)[C@@H]1O[C@H](COC(C)=O)[C@@H](OC(C)=O)[C@H](OC(C)=O)[C@H]1OC2=O |
| Not Active | CCCCCC(=O)Oc1cc2c(c(OC(C)=O)c1OC)[C@@H]1O[C@H](COC(C)=O)[C@@H](OC(C)=O)[C@H](OC(C)=O)[C@H]1OC2=O |
| Not Active | CCCCCCCCCCCCCC(=O)Oc1cc2c(c(OC(C)=O)c1OC)[C@@H]1O[C@H](COC(C)=O)[C@@H](OC(C)=O)[C@H](OC(C)=O)[C@H]1OC2=O |

Continued, compound first:

| SMILES | inhibition (INH) |
| --- | --- |
| O=c1c(O)c(-c2ccc(O)c(O)c2)oc2cc(O)cc(O)c12 [QUERCETIN] | Active |
| COc1c(O)cc2c(c1O)[C@@H]1O[C@H](CO)[C@@H](O)[C@H](O)[C@H]1OC2=O [BERGENIN] | Not Active |

These compounds were tested on Staphylococcus aureus (assay: Antibacterial activity against Staphylococcus aureus MTCC 2940 at 2000 ug/ml after 24 hrs by agar-well diffusion method). Conditions: MTCC 2940, 24 h, read-out: DIZ.
Format: functional

| SMILES | zone of inhibition at 2000 µg/mL [mm] |
| --- | --- |
| COc1c(OC(=O)c2ccccc2)cc2c(c1OC(C)=O)[C@@H]1O[C@H](COC(C)=O)[C@@H](OC(C)=O)[C@H](OC(C)=O)[C@H]1OC2=O | 5.5 |
| COc1c(O)cc2c(c1OC(C)=O)[C@@H]1O[C@H](COC(C)=O)[C@@H](OC(C)=O)[C@H](OC(C)=O)[C@H]1OC2=O | 3.2 |
| CCCCCCCCCC(=O)Oc1cc2c(c(OC(C)=O)c1OC)[C@@H]1O[C@H](COC(C)=O)[C@@H](OC(C)=O)[C@H](OC(C)=O)[C@H]1OC2=O | 3.2 |
| CCCCCC(=O)Oc1cc2c(c(OC(C)=O)c1OC)[C@@H]1O[C@H](COC(C)=O)[C@@H](OC(C)=O)[C@H](OC(C)=O)[C@H]1OC2=O | 6.4 |
| COc1c(O)cc2c(c1O)[C@@H]1O[C@H](CO)[C@@H](O)[C@H](O)[C@H]1OC2=O [BERGENIN] | 2.1 |
| CCCCCCCCCCCCCC(=O)Oc1cc2c(c(OC(C)=O)c1OC)[C@@H]1O[C@H](COC(C)=O)[C@@H](OC(C)=O)[C@H](OC(C)=O)[C@H]1OC2=O | 2.4 |
| COc1c(OC(C)=O)cc2c(c1OC(C)=O)[C@@H]1O[C@H](COC(C)=O)[C@@H](OC(C)=O)[C@H](OC(C)=O)[C@H]1OC2=O [BERGENIN PENTAACETATE] | 8.3 |

What follows are compounds tested on Bacillus subtilis (assay: Antibacterial activity against Bacillus subtilis MTCC 441 at 2000 ug/ml after 24 hrs by agar-well diffusion method). Conditions: MTCC 441, 24 h, read-out: DIZ.
Format: functional

| SMILES | zone of inhibition at 2000 µg/mL [mm] |
| --- | --- |
| COc1c(OC(=O)c2ccccc2)cc2c(c1OC(C)=O)[C@@H]1O[C@H](COC(C)=O)[C@@H](OC(C)=O)[C@H](OC(C)=O)[C@H]1OC2=O | 4.3 |
| COc1c(O)cc2c(c1OC(C)=O)[C@@H]1O[C@H](COC(C)=O)[C@@H](OC(C)=O)[C@H](OC(C)=O)[C@H]1OC2=O | 4.3 |
| CCCCCCCCCC(=O)Oc1cc2c(c(OC(C)=O)c1OC)[C@@H]1O[C@H](COC(C)=O)[C@@H](OC(C)=O)[C@H](OC(C)=O)[C@H]1OC2=O | 3.9 |
| CCCCCC(=O)Oc1cc2c(c(OC(C)=O)c1OC)[C@@H]1O[C@H](COC(C)=O)[C@@H](OC(C)=O)[C@H](OC(C)=O)[C@H]1OC2=O | 7.4 |
| COc1c(O)cc2c(c1O)[C@@H]1O[C@H](CO)[C@@H](O)[C@H](O)[C@H]1OC2=O [BERGENIN] | 1.3 |
| CCCCCCCCCCCCCC(=O)Oc1cc2c(c(OC(C)=O)c1OC)[C@@H]1O[C@H](COC(C)=O)[C@@H](OC(C)=O)[C@H](OC(C)=O)[C@H]1OC2=O | 2.2 |
| COc1c(OC(C)=O)cc2c(c1OC(C)=O)[C@@H]1O[C@H](COC(C)=O)[C@@H](OC(C)=O)[C@H](OC(C)=O)[C@H]1OC2=O [BERGENIN PENTAACETATE] | 5.2 |

Each compound was assayed on Escherichia coli (assay: Antibacterial activity against Escherichia coli MTCC 739 at 2000 ug/ml after 24 hrs by agar-well diffusion method). Conditions: MTCC 739, 24 h, read-out: DIZ.
Format: functional

| SMILES | zone of inhibition at 2000 µg/mL [mm] |
| --- | --- |
| COc1c(OC(=O)c2ccccc2)cc2c(c1OC(C)=O)[C@@H]1O[C@H](COC(C)=O)[C@@H](OC(C)=O)[C@H](OC(C)=O)[C@H]1OC2=O | 9.3 |
| COc1c(O)cc2c(c1OC(C)=O)[C@@H]1O[C@H](COC(C)=O)[C@@H](OC(C)=O)[C@H](OC(C)=O)[C@H]1OC2=O | 14.1 |
| CCCCCCCCCC(=O)Oc1cc2c(c(OC(C)=O)c1OC)[C@@H]1O[C@H](COC(C)=O)[C@@H](OC(C)=O)[C@H](OC(C)=O)[C@H]1OC2=O | 6.2 |
| CCCCCC(=O)Oc1cc2c(c(OC(C)=O)c1OC)[C@@H]1O[C@H](COC(C)=O)[C@@H](OC(C)=O)[C@H](OC(C)=O)[C@H]1OC2=O | 21.4 |
| COc1c(O)cc2c(c1O)[C@@H]1O[C@H](CO)[C@@H](O)[C@H](O)[C@H]1OC2=O [BERGENIN] | 3.3 |
| CCCCCCCCCCCCCC(=O)Oc1cc2c(c(OC(C)=O)c1OC)[C@@H]1O[C@H](COC(C)=O)[C@@H](OC(C)=O)[C@H](OC(C)=O)[C@H]1OC2=O | 5.4 |
| COc1c(OC(C)=O)cc2c(c1OC(C)=O)[C@@H]1O[C@H](COC(C)=O)[C@@H](OC(C)=O)[C@H](OC(C)=O)[C@H]1OC2=O [BERGENIN PENTAACETATE] | 16.2 |

The compounds below were run on Klebsiella pneumoniae (assay: Antibacterial activity against Klebsiella pneumoniae MTCC 139 at 2000 ug/ml after 24 hrs by agar-well diffusion method). Conditions: MTCC 139, 24 h, read-out: DIZ.
Format: functional

| SMILES | zone of inhibition at 2000 µg/mL [mm] |
| --- | --- |
| COc1c(OC(=O)c2ccccc2)cc2c(c1OC(C)=O)[C@@H]1O[C@H](COC(C)=O)[C@@H](OC(C)=O)[C@H](OC(C)=O)[C@H]1OC2=O | 6.3 |
| COc1c(O)cc2c(c1OC(C)=O)[C@@H]1O[C@H](COC(C)=O)[C@@H](OC(C)=O)[C@H](OC(C)=O)[C@H]1OC2=O | 3.3 |
| CCCCCCCCCC(=O)Oc1cc2c(c(OC(C)=O)c1OC)[C@@H]1O[C@H](COC(C)=O)[C@@H](OC(C)=O)[C@H](OC(C)=O)[C@H]1OC2=O | 4.2 |
| CCCCCC(=O)Oc1cc2c(c(OC(C)=O)c1OC)[C@@H]1O[C@H](COC(C)=O)[C@@H](OC(C)=O)[C@H](OC(C)=O)[C@H]1OC2=O | 5.4 |
| COc1c(O)cc2c(c1O)[C@@H]1O[C@H](CO)[C@@H](O)[C@H](O)[C@H]1OC2=O [BERGENIN] | 2.5 |
| CCCCCCCCCCCCCC(=O)Oc1cc2c(c(OC(C)=O)c1OC)[C@@H]1O[C@H](COC(C)=O)[C@@H](OC(C)=O)[C@H](OC(C)=O)[C@H]1OC2=O | 3.1 |
| COc1c(OC(C)=O)cc2c(c1OC(C)=O)[C@@H]1O[C@H](COC(C)=O)[C@@H](OC(C)=O)[C@H](OC(C)=O)[C@H]1OC2=O [BERGENIN PENTAACETATE] | 5.1 |

What follows are compounds tested on Staphylococcus aureus (assay: Antibacterial activity against Staphylococcus aureus MTCC 2940 at 30 ug/disc after 24 hrs). Conditions: MTCC 2940, 24 h, read-out: DIZ.
Format: functional

| SMILES | zone of inhibition at 30 µg/disc [mm] |
| --- | --- |
| NC[C@H]1O[C@H](O[C@H]2[C@H](O)[C@@H](O[C@H]3O[C@H](CO)[C@@H](O)[C@H](N)[C@H]3O)[C@H](N)C[C@@H]2N)[C@H](O)[C@@H](O)[C@@H]1O [KANAMYCIN] | 25.1 |

These compounds were tested on Bacillus subtilis (assay: Antibacterial activity against Bacillus subtilis MTCC 441 at 30 ug/disc after 24 hrs). Conditions: MTCC 441, 24 h, read-out: DIZ.
Format: functional

| SMILES | zone of inhibition at 30 µg/disc [mm] |
| --- | --- |
| NC[C@H]1O[C@H](O[C@H]2[C@H](O)[C@@H](O[C@H]3O[C@H](CO)[C@@H](O)[C@H](N)[C@H]3O)[C@H](N)C[C@@H]2N)[C@H](O)[C@@H](O)[C@@H]1O [KANAMYCIN] | 23.2 |

Each compound was assayed on Escherichia coli (assay: Antibacterial activity against Escherichia coli MTCC 739 at 30 ug/disc after 24 hrs). Conditions: MTCC 739, 24 h, read-out: DIZ.
Format: functional

| SMILES | zone of inhibition at 30 µg/disc [mm] |
| --- | --- |
| NC[C@H]1O[C@H](O[C@H]2[C@H](O)[C@@H](O[C@H]3O[C@H](CO)[C@@H](O)[C@H](N)[C@H]3O)[C@H](N)C[C@@H]2N)[C@H](O)[C@@H](O)[C@@H]1O [KANAMYCIN] | 18 |

These compounds were tested on Klebsiella pneumoniae (assay: Antibacterial activity against Klebsiella pneumoniae MTCC 139 at 30 ug/disc after 24 hrs). Conditions: MTCC 139, 24 h, read-out: DIZ.
Format: functional

| SMILES | zone of inhibition at 30 µg/disc [mm] |
| --- | --- |
| NC[C@H]1O[C@H](O[C@H]2[C@H](O)[C@@H](O[C@H]3O[C@H](CO)[C@@H](O)[C@H](N)[C@H]3O)[C@H](N)C[C@@H]2N)[C@H](O)[C@@H](O)[C@@H]1O [KANAMYCIN] | 19.5 |
